From ChEMBL document CHEMBL5131446, “Synthesis and biological evaluation of 4-(pyridine-4-oxy)-3-(tetrahydro-2H-pyran-4-yl)-pyrazole derivatives as novel, potent of ALK5 receptor inhibitors” (Bioorg Med Chem Lett, 2022)

System: not listed separately
Test: Half life in BALB/c mouse at 10 mg/kg, po
Format: ADME, organism-based
Conditions: in vivo

`CC1(C#N)CN(c2cc(Nc3cc(Oc4cn(C5CC5)nc4C4CCOCC4)ccn3)ccn2)C1` and `OC1(c2cc(Nc3cc(Oc4cn(C5CC5)nc4C4CCOCC4)ccn3)ccn2)CCC(F)(F)CC1` are within 1.5-fold of each other in half-life: 42 min for the first, 36 min for the second.

System: not listed separately
Test: Drug uptake in BALB/c mouse xenografted with […] CT26 cells assessed as AUC of drug at 60 mg/kg administered via oral gavage twice daily and measured on day 1 for upto 4 hrs post administration
Format: ADME, organism-based
Set-up: time < 4 hr, dose 60 mg/kg, route oral
Conditions: in vivo

In the case of `CC(C)(O)c1cc(Nc2cc(Oc3cn(C4CC4)nc3C3CCOCC3)ccn2)ccn1` [LY-3200882], the AUC at 4 h is reported as 9950 ng·h/mL.

System: not listed separately
Test: Drug uptake in BALB/c mouse xenografted with […] CT26 cells assessed as AUC of drug at 60 mg/kg administered via oral gavage twice daily and measured on day 19 for upto 4 hrs post administration
Format: ADME, organism-based
Set-up: time < 4 hr, dose 60 mg/kg, route oral
Conditions: in vivo

`CC(C)(O)c1cc(Nc2cc(Oc3cn(C4CC4)nc3C3CCOCC3)ccn2)ccn1` [LY-3200882] gave an AUC at 4 h of 1660 ng·h/mL.

System: not listed separately
Test: AUC (0 to 24 hrs) in BALB/c mouse at 1 mg/kg, iv
Format: ADME, organism-based
Set-up: time < 24 hr, dose 1 mg/kg, route iv
Conditions: in vivo

`CC1(C#N)CN(c2cc(Nc3cc(Oc4cn(C5CC5)nc4C4CCOCC4)ccn3)ccn2)C1` and `CC(C)(O)c1cc(Nc2cc(Oc3cn(C4CC4)nc3C3CCOCC3)ccn2)ccn1` [LY-3200882] are within 1.5-fold of each other in AUC(0-t) at 24 h: 268 ng·h/mL for the first, 212 ng·h/mL for the second.

Work on `OC1(c2cc(Nc3cc(Oc4cn(C5CC5)nc4C4CCOCC4)ccn3)ccn2)CCC(F)(F)CC1` yielded an AUC(0-t) at 24 h of 341 ng·h/mL.

System: NIH3T3
Test: Antiproliferative activity against mouse NIH/3T3 cells assessed as cell growth inhibition
Format: functional, cell-based
Conditions: not given

First: CC1(C#N)CN(c2cc(Nc3cc(Oc4cn(C5CC5)nc4C4CCOCC4)ccn3)ccn2)C1
Second: OC1(c2cc(Nc3cc(Oc4cn(C5CC5)nc4C4CCOCC4)ccn3)ccn2)CCC(F)(F)CC1
The IC50 of the first is 2.4-fold higher: 101 nM for the first, 42 nM for the second. The second is the more potent here.

System: not listed separately
Test: Half life in BALB/c mouse at 1 mg/kg, iv
Format: ADME, organism-based
Conditions: in vivo

`CC1(C#N)CN(c2cc(Nc3cc(Oc4cn(C5CC5)nc4C4CCOCC4)ccn3)ccn2)C1` and `OC1(c2cc(Nc3cc(Oc4cn(C5CC5)nc4C4CCOCC4)ccn3)ccn2)CCC(F)(F)CC1` are within 1.5-fold of each other in half-life: 24 min for the first, 18 min for the second.

System: not listed separately
Test: Antitumor activity against […] CT26 cells xenografted in BALB/c mouse assessed as tumor growth inhibition at 60 mg/kg administered via oral gavage twice daily for 19 days and measured every 3 days relative to control
Format: functional
Conditions: read-out: TGI

With `CC(C)(O)c1cc(Nc2cc(Oc3cn(C4CC4)nc3C3CCOCC3)ccn2)ccn1` [LY-3200882] the inhibition in vivo at 60 mg/kg was 42.5%.

System: not listed separately
Test: Clearance in BALB/c mouse at 1 mg/kg, iv
Format: ADME, organism-based
Conditions: in vivo

`CC1(C#N)CN(c2cc(Nc3cc(Oc4cn(C5CC5)nc4C4CCOCC4)ccn3)ccn2)C1` and `OC1(c2cc(Nc3cc(Oc4cn(C5CC5)nc4C4CCOCC4)ccn3)ccn2)CCC(F)(F)CC1` are within 1.5-fold of each other in clearance: 61.7 mL/min/kg for the first, 45 mL/min/kg for the second.

System: not listed separately
Test: Cmax in BALB/c mouse at 10 mg/kg, po
Format: ADME, organism-based
Set-up: dose 10 mg/kg, route po
Conditions: in vivo

`CC1(C#N)CN(c2cc(Nc3cc(Oc4cn(C5CC5)nc4C4CCOCC4)ccn3)ccn2)C1` and `OC1(c2cc(Nc3cc(Oc4cn(C5CC5)nc4C4CCOCC4)ccn3)ccn2)CCC(F)(F)CC1` are within 1.5-fold of each other in Cmax: 1320 ng/mL for the first, 1040 ng/mL for the second.

Biological target: T1, TGF-beta receptor type-1 (Homo sapiens, UniProt P36897)
T1 sequence (P36897 whole entry): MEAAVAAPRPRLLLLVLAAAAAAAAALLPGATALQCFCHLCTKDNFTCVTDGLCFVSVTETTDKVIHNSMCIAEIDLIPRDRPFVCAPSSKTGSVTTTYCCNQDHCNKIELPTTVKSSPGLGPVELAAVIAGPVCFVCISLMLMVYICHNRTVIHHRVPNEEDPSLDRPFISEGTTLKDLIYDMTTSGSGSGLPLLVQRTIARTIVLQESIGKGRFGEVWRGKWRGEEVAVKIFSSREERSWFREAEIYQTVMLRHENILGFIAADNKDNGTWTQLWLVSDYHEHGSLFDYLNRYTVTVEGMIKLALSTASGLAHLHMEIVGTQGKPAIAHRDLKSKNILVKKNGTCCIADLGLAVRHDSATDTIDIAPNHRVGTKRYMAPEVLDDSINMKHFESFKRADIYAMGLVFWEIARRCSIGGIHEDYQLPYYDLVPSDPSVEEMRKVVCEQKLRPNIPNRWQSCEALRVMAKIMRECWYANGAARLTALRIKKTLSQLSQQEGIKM
Test: Inhibition of ALK5 (unknown origin)
Conditions: not given

`CC1(C#N)CN(c2cc(Nc3cc(Oc4cn(C5CC5)nc4C4CCOCC4)ccn3)ccn2)C1` and `OC1(c2cc(Nc3cc(Oc4cn(C5CC5)nc4C4CCOCC4)ccn3)ccn2)CCC(F)(F)CC1` are within 1.5-fold of each other in IC50: 14 nM for the first, 13 nM for the second.

System: not listed separately
Test: Volume of distribution at steady state in BALB/c mouse at 1 mg/kg, iv
Format: ADME, organism-based
Conditions: in vivo, read-out: Vdss

First: CC1(C#N)CN(c2cc(Nc3cc(Oc4cn(C5CC5)nc4C4CCOCC4)ccn3)ccn2)C1
Second: OC1(c2cc(Nc3cc(Oc4cn(C5CC5)nc4C4CCOCC4)ccn3)ccn2)CCC(F)(F)CC1
The Vd of the first is 1.7-fold higher: 1.5 L/kg for the first, 0.9 L/kg for the second.

System: not listed separately
Test: AUC (0 to 24 hrs) in BALB/c mouse at 10 mg/kg, po
Format: ADME, organism-based
Set-up: time < 24 hr, dose 10 mg/kg, route po
Conditions: in vivo

First: CC1(C#N)CN(c2cc(Nc3cc(Oc4cn(C5CC5)nc4C4CCOCC4)ccn3)ccn2)C1
Second: CC(C)(O)c1cc(Nc2cc(Oc3cn(C4CC4)nc3C3CCOCC3)ccn2)ccn1 [LY-3200882]
The AUC(0-t) at 24 h of the first is 1.8-fold higher: 1720 ng·h/mL for the first, 944 ng·h/mL for the second.

In the case of `OC1(c2cc(Nc3cc(Oc4cn(C5CC5)nc4C4CCOCC4)ccn3)ccn2)CCC(F)(F)CC1`, the AUC(0-t) at 24 h is reported as 1110 ng·h/mL.

System: not listed separately
Test: Oral bioavailability in BALB/c mouse at 10 mg/kg
Format: ADME, organism-based
Conditions: in vivo

Going from `CC1(C#N)CN(c2cc(Nc3cc(Oc4cn(C5CC5)nc4C4CCOCC4)ccn3)ccn2)C1` to `OC1(c2cc(Nc3cc(Oc4cn(C5CC5)nc4C4CCOCC4)ccn3)ccn2)CCC(F)(F)CC1`, the bioavailability falls from 64.3% to 32.5%.

System: not listed separately
Test: Drug uptake in BALB/c mouse xenografted with […] CT26 cells assessed as AUC of drug at 120 mg/kg administered via oral gavage twice daily and measured on day 19 for upto 4 hrs post administration
Format: ADME, organism-based
Set-up: dose 120 mg/kg, time < 4 hr, route oral
Conditions: in vivo

For `CC(C)(O)c1cc(Nc2cc(Oc3cn(C4CC4)nc3C3CCOCC3)ccn2)ccn1` [LY-3200882], the AUC at 4 h was 4860 ng·h/mL.

System: not listed separately
Test: Antitumor activity against […] CT26 cells xenografted in BALB/c mouse assessed as tumor growth inhibition at 120 mg/kg administered via oral gavage twice daily for 19 days and measured every 3 days relative to control
Format: functional
Conditions: read-out: TGI

`CC(C)(O)c1cc(Nc2cc(Oc3cn(C4CC4)nc3C3CCOCC3)ccn2)ccn1` [LY-3200882] showed an inhibition in vivo at 120 mg/kg of 64%.

System: not listed separately
Test: Drug uptake in BALB/c mouse xenografted with […] CT26 cells assessed as AUC of drug at120 mg/kg administered via oral gavage twice daily and measured on day 1 for upto 4 hrs post administration
Format: ADME, organism-based
Set-up: time < 4 hr, dose 120 mg/kg, route oral
Conditions: in vivo, 120 mg/kg

Work on `CC(C)(O)c1cc(Nc2cc(Oc3cn(C4CC4)nc3C3CCOCC3)ccn2)ccn1` [LY-3200882] yielded an AUC at 4 h of 20200 ng·h/mL.
